Among the data in patent US20020006915A1, “Use of COX-2 inhibitors to treat sepsis, complications thereof, and EP receptor modulation” (priority 2000, published 2002) are EP4 receptor expression, EP2 receptor expression and CD14 receptor expression values, retold here.

Each structure is given as a SMILES string. “Also recorded” adds a separate entry of the source.

Assay [1] has as its system EP4 receptor. The experiment in a line: EP4 receptor expression in LPS stimulated human PBMC's via RT-PCR. Particulars: control PBMC's. It is filed as cell-based. As for the experimental part:
(§1) Serial dilutions were made to co-culture cells with a final concentration of […] NS-398 in a 0.1% DMSO. Control and trauma groups were co-cultured with 0.1% DMSO vehicle for comparisons with NS-398 treated groups.

For assay [2], the system named is EP2 receptor. The experiment in a line: EP2 receptor expression in LPS stimulated human PBMC's via RT-PCR. The format is cell-based. The conditions noted are these: control PBMC's. The method, then:
as §1

The subject of assay [3] is CD14 receptor. The conditions noted are these: mononuclear cells from control and injured subjects, co-culture with 100 μM PGE2.
Protocol: To confirm that injury was not down regulating all circulating mononuclear cell surface receptors, the expression of the CD14 receptor, which is ubiquitous on the surface of mononuclear cells, was evaluated.
The mark [4] stands for this setting: exogenous PGE2 from 10^−4 μM, below 100 μM.

`CCCCC[C@H](O)/C=C/[C@H]1[C@H](O)CC(=O)[C@@H]1C/C=C\CCCC(=O)O` [PGE2, Prostaglandin-E2]: the results for the EP4 receptor expression result in assay [1] (100 μM exogenous PGE2) and in assay [1] (setting [4]) were “attenuated to levels below those seen in control samples; also recorded: Decreased expression” and “no change in receptor expression; also recorded: No attenuation”, respectively. Further, the results for the EP2 receptor expression result in assay [2] (100 μM exogenous PGE2) and in assay [2] (setting [4]) were “attenuated to levels below those seen in control samples; also recorded: Decreased expression” and “no change in receptor expression; also recorded: No attenuation”, respectively. In addition, the CD14 receptor expression result in assay [3] is given as “did not markedly alter the levels of CD14 receptor expression”.
